Data reported in patent US7947686B2, “Substituted pyrazolo[4,3-c]pyridine derivatives active as kinase inhibitors” (Nerviano Medical Sciences S.r.l., priority 2005, dated 2011).

Key:
IGF1R [1] = molecular target: T1, IGF1R (Homo sapiens, UniProt P08069); assay: Biochemical assay for inhibitors of IGF-1R kinase activity (trans-phosphorylation, 33P-ATP, Dowex); set-up: amino acid residues 960-1367 of precursor protein; made in house; host or cells: H5 insect cells (baculovirus; virus produced in Sf21 cells); conditions: read-out: IGF1R IC50 (μM) Biochemical assay
Protocol: Human cDNA was used as template for amplification by polymerase chain reaction (PCR) of the predicted cytoplasmic portion of IGF-1R (amino acid residues 960-1367 of precursor protein; see NCBI Entrez Protein Accession #P08069) which includes the entire kinase domain. PCR was conducted using the forward primer sequence 5′-[…]-3′ (SEQ ID NO:1) and the reverse primer sequence 5′-[…]-3′ (SEQ ID NO:2). In order to facilitate subsequent cloning steps, both primers comprise a BamHI restriction endonuclease site sequence. This PCR product was cloned in frame using BamHI sticky ends into a transfer vector for the baculovirus expression system, pVL1392 (Pharmingen), previously modified by insertion into the pVL1392 multiple cloning site of sequences encoding Glutathione S-transferase (GST) fusion protein, PreScission protease cleavage site and partial MCS cassette derived from the pGex-6P plasmid (Amersham BioSciences). Insertion of the IGF-1R PCR product described above into the pGex-6P derived BamHI site of the modified pVL1392 vector results in an open reading frame corresponding to the pGEX-6P GST protein and PreScission peptide fused with the human IGF-1R cytoplasmic domain. In order to obtain fusion protein, Sf21 insect cells (Invitrogen) are cotransfected with 2 microg of purified plasmid and 1 microg of virus DNA (BaculoGold™ Transfection Kit, Pharmingen), as described in the Baculovirus Instruction manual (Pharmingen). A first amplification of the virus is performed using 600 microL of cotransfected virus on 6×10^6 Sf21 in a monolayer culture, in 12 mL of medium (TNM-FH Grace's medium—Pharmingen). After 3 days the medium is collected, centrifuged and transferred to a sterile tube. A second amplification is prepared with the same method using 2 mL on 3×10^7 cells, diluted in 40 mL of medium. For the third amplification of virus, 1 mL of supernatant from the second round are used per 3×10^7 cells diluted in 40 mL of medium. […]
The inhibitory activity of putative kinase inhibitors and the potency of selected compounds were determined using a trans-phosphorylation assay. […]
Target sequence in this assay (P08069 960-1367): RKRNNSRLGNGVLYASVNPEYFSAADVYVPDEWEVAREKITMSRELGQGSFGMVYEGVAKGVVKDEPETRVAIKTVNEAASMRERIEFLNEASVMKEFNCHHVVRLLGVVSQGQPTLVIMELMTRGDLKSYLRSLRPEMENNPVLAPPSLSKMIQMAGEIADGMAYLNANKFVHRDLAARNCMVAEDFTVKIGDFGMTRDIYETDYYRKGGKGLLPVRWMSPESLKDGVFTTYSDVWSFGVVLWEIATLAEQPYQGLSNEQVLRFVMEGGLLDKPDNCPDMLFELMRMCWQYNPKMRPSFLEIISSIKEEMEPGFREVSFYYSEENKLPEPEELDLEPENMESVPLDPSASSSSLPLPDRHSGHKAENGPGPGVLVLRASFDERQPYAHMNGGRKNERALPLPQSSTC

[2] = system: IGF1-induced S6 phosphorylation; assay: Growth factor induced S6 ribosomal protein phosphorylation in primary human fibroblasts; assay type: cell-based; conditions: normal human dermal fibroblasts (NHDF), 10 nM IGF-1; read-out: Inhibition of IGF1-induced S6 phosphorylation IC50
Protocol: Growth Factor Induced […] Ribosomal Protein Phosphorylation in Primary Human Fibroblasts.
Phosphorylation of S6 ribosomal protein in response to growth factor stimulation of normal human dermal fibroblasts (NHDF) was used to assess compound potency in inhibiting IGF-1 induced signal transduction in cells, and selectivity towards EGF and PDGF stimulus. NHDF cells obtained from PromoCell (Heidelberg, Germany), were maintained at 37° C. in a humidified atmosphere with 5% CO2 in complete Fibroblast Growth Medium (PromoCell). For assay, NHDF were seeded in 384-well tissue culture plates (clear- and flat-bottomed black plates; Matrix Technologies Inc., Hudson, N.H., USA) at a density of 5000 cells/well in serum-free medium containing 0.1% bovine serum albumin (BSA) and incubated for 5 days. Starved cells were treated for 1 hour with desired doses of compounds and then stimulated for a further 2 hours with either 10 nM IGF-1 (Invitrogen Corp., CA, USA), 10 nM EGF (Gibco BRL, USA) or 1 nM PDGF-B/B (Roche Diagnostics GmbH, Germany). Cells were then fixed in PBS/3.7% paraformaldehyde for 20 minutes at room temperature, washed ×2 with PBS, and permeabilized with PBS/0.3% Triton X-100 for 15 minutes. Wells were then saturated with PBS/1% non-fat dry milk (Bio-Rad Laboratories, Hercules, Calif., USA) for 1 hour, and then probed for 1 hour at 37° C. with anti-phospho-S6 (Ser 235/236) antibody (Cell Signaling Technology, Beverly, Mass., USA, cat. #2211) at 1/200 dilution in PBS/1% milk/0.3% Tween 20. […] Fluorescence images in the DAPI and Cy5™ channels were automatically acquired, stored and analysed using a Cellomics ArrayScan™ IV instrument (Cellomics, Pittsburgh, USA); the Cellomics Cytotoxicity Algorithm was used to quantify cytoplasmic fluorescence associated with phospho-S6 (Cy5™ signal parameter: “Mean Lyso Mass-pH”) for each cell in 10 fields/well, and eventually expressed as a mean population value. […]

IGF1R [3] = molecular target: T1, IGF1R; assay: Western blot analysis of receptor phosphorylation following stimulation with IGF-1 in MCF-7 human breast cancer cells; assay type: cell-based; set-up: endogenous in cells; host or cells: MCF-7 (ATCC#HTB-22); conditions: starved MCF-7 cells, increasing concentrations of compound, then 10 nM IGF1; pIGF1R band, FIG. 1
Protocol: [formula] where νb is the baseline velocity, ν is the observed reaction velocity, ν0 is the velocity in the absence of inhibitors, and [I] is the inhibitor concentration. Cell-Based Assays for Inhibitors of IGF-1R Kinase Activity Western Blot Analysis of Receptor Phosphorylation Following Stimulation with IGF-1 in MCF-7 Human Breast Cancer Cells
MCF-7 cells (ATCC#HTB-22) were seeded in 12-well tissue culture plates at 2×10^5 cells/well in E-MEM medium (MEM+Earle's BSS+2 mM glutamine+0.1 mM non-essential amino acids)+10% FCS, and incubated overnight at 37° C., 5% CO2, 100% relative humidity. Cells were then starved by replacing E-MEM+10% FCS with E-MEM+0.1% BSA, and incubating overnight. After this incubation, wells were treated with desired concentrations of compound for 1 hour at 37° C., and were then stimulated with 10 nM recombinant human IGF-1 (Invitrogen, Carlsbad, Calif., USA) for 10 minutes at 37° C. Cells were then washed with PBS and lysed in 100 microL/well cell lysis buffer (M-PER Mammalian Protein Extraction Reagent [Product #78501, Pierce, Rockford, Ill., USA]+10 mM EDTA+Protease inhibitor cocktail [Sigma-Aldrich product #P8340]+phosphatase inhibitor cocktail [Sigma-Aldrich products #P2850+#P5726]). Cell lysates were cleared by centrifugation at 10,000×g for 5 minutes, and 10 microg/lane of cleared lysate protein were run on NuPAGE gels (NuPAGE 4-12% 10-lane Bis-Tris gels, Invitrogen) with MOPS running buffer, then transferred onto Hybond-ECL nitrocellulose filters (Amersham Biosciences, Little Chalfont, Buckinghamshire, UK) using Mini PROTEAN II chambers (Bio-Rad Laboratories, Hercules, Calif., USA). […]
Target sequence in this assay (P08069 31-1367): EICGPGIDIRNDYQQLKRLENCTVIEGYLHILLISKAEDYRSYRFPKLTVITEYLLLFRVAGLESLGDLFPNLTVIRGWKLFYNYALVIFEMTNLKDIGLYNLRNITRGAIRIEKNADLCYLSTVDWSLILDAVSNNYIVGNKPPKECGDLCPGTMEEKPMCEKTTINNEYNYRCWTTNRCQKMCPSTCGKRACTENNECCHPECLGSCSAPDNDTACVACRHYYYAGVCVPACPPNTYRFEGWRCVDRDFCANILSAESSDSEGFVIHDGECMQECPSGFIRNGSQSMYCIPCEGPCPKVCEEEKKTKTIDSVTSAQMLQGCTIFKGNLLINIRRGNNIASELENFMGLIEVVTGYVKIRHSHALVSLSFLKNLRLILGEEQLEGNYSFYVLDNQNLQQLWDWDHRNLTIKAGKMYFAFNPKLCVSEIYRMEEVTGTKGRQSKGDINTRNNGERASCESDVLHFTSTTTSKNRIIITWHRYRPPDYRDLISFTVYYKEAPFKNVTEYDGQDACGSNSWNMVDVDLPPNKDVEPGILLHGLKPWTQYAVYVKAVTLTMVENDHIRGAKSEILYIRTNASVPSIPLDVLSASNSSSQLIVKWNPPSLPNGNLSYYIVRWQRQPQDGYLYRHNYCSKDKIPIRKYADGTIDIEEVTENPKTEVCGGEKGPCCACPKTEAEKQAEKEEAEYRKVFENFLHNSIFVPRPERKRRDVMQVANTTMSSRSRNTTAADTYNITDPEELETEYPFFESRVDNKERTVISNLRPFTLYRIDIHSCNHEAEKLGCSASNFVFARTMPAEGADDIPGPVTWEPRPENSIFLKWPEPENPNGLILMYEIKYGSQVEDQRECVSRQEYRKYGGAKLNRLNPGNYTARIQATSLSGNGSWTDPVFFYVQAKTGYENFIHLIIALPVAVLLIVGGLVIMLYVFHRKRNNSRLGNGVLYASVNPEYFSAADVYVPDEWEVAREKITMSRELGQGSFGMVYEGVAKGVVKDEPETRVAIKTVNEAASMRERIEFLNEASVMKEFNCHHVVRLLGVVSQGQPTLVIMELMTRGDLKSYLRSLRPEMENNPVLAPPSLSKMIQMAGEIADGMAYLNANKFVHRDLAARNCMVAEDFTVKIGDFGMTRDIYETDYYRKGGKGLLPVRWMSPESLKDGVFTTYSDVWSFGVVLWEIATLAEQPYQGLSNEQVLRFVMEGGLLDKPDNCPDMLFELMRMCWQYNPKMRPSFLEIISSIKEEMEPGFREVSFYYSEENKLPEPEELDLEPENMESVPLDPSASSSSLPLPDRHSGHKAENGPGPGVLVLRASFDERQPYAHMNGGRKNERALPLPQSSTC

Row | IC50 (IGF1R [1]) | SMILES | IC50 [2] | inhibition of IGF1R auto-phosphorylation (IGF1R [3])
1 | 0.14 µM | CN1CCN(c2ccc(C(=O)Nc3n[nH]c4c3CN(S(=O)(=O)c3cc(F)cc(F)c3)CC4(C)C)c(NC(=O)C3CCOCC3)c2)CC1 [Compound 293, Tetrahydro-pyran-4-carboxylic acid [2-[5-(3,5-difluoro-benzenesulfonyl)-7,7-dimethyl-4,5,6,7-tetrahydro-1H-pyrazolo[4,3-c]pyridin-3-ylcarbamoyl]-5-(4-methyl-piperazin-1-yl)-phenyl]-amide] | 280 nM | inhibition of IGF1-induced IGF1R auto-phosphorylation
2 | 0.049 µM | CN1CCN(c2ccc(C(=O)Nc3n[nH]c4c3CN(S(=O)(=O)c3cc(F)cc(F)c3)CC4)c(NC(=O)c3ccc[nH]3)c2)CC1 [Compound 28, 1H-Pyrrole-2-carboxylic acid [2-[5-(3,5-difluoro-benzenesulfonyl)-4,5,6,7-tetrahydro-1H-pyrazolo[4,3-c]pyridin-3-ylcarbamoyl]-5-(4-methyl-piperazin-1-yl)-phenyl]-amide] | 80 nM | inhibition of IGF1-induced IGF1R auto-phosphorylation
3 | 0.055 µM | CN1CCN(c2ccc(C(=O)Nc3n[nH]c4c3CN(S(=O)(=O)c3cc(F)cc(F)c3)CC4)c(NCc3ccco3)c2)CC1 [Compound 52, N-[5-(3,5-Difluoro-benzenesulfonyl)-4,5,6,7-tetrahydro-1H-pyrazolo[4,3-c]pyridin-3-yl]-2-[(furan-2-ylmethyl)-amino]-4-(4-methyl-piperazin-1-yl)-benzamide] | 640 nM | inhibition of IGF1-induced IGF1R auto-phosphorylation
